Reference: patent US12728119B2, “Pharmaceutical composition for preventing or treating cancer comprising 3-ketoacyl CoA thiolase inhibitor and carnitine acylcarnitine carrier inhibitor” (NATIONAL CANCER CENTER, priority 2020, dated 2026)

Experiments:
Assay type in all cases: cell-based
[1] = test system: OVCAR-8 ovarian cancer cell line; assay: SRB analysis 3; conditions: 48 hours
Protocol: (§1) Through SRB analysis (n=3), the effect of triple combination treatment of a CAC inhibitor (KN510: omeprazole), ACAA inhibitor (KN713: trimetazidine) and other anticancer drug on cell growth in the cancer cells was analyzed. (see Table 11).
(§2) The SRB assay was performed as follows: each cell line (100 μl) was seeded into 96-well microtiter plates at densities ranging from 5,000 to 40,000 cells/well depending on the doubling time of each cell line. After 24 hours, drug (100 μl per well) was added to each well and the culture was incubated at 37° C. for 48 hours. Cells were then fixed in 50% TCA (50 μl per well) and plates were incubated at 4° C. for a minimum of 1 hour or a maximum of 3 hours. After that, the liquid was removed from the plate, then rinsed 5 times with water and dried for approximately 12-24 hours at room temperature (RT). After the fixed cells were stained with 0.4% SRB (100 μl per well) for 10 minutes at room temperature, the plates were washed 3 times with 1% glacial acetic acid and dried at room temperature for about 12-24 hours. SRB staining was dissolved in 10 mM Trizma base and absorbance was read at 515 nm. The effect of the drug was expressed as GI50 (50% growth inhibition), TGI (total growth inhibition) or LC50 (lethal concentration). GI50 is the maximum concentration at the moment of 50% inhibition of cell proliferation and IC50 is the concentration of the drug that inhibits the enzyme activity in vitro by 50% in this study.

[2] = test system: COLO-205 colon cancer cell line; assay: SRB analysis 3; conditions: 48 hours
Protocol: as §1, §2

[3] = test system: AGS gastric cancer cell line; assay: SRB analysis 3; conditions: 48 hours
Protocol: as §1, §2

[4] = test system: HCT-116 colon cancer cell line; assay: SRB analysis 3; conditions: 48 hours
Protocol: as §1, §2

[5] = test system: PC-3 prostate cancer cell line; assay: SRB analysis 3; conditions: 48 hours
Protocol: as §1, §2

[6] = test system: Huh-7 liver cancer cell line; assay: SRB analysis 3; conditions: 48 hours
Protocol: as §1, §2

[7] = test system: Caki-1 renal cancer cell line; assay: SRB analysis 3; conditions: 48 hours
Protocol: as §1, §2

[8] = test system: UACC62 melanoma cell line; assay: SRB analysis 3; conditions: 48 hours
Protocol: as §1, §2

[9] = test system: MKN45 gastric cancer cell line; assay: SRB analysis 3; conditions: 48 hours
Protocol: as §1, §2

[10] = test system: A375 melanoma cell line; assay: SRB analysis 3; conditions: 48 hours
Protocol: as §1, §2

[11] = test system: DU145 prostate cancer cell line; assay: SRB analysis 3; conditions: 48 hours
Protocol: as §1, §2

[12] = test system: SK-hep-1 liver cancer cell line; assay: SRB analysis 3; conditions: 48 hours
Protocol: as §1, §2

[13] = test system: AsPC-1 pancreatic cancer (PDAC) cell line; assay: SRB analysis 3; conditions: 48 hours
Protocol: as §1, §2

[14] = test system: MIA PaCa-2 pancreatic cancer (PDAC) cell line; assay: SRB analysis 3; conditions: 48 hours
Protocol: as §1, §2

[15] = test system: MCF7 breast cancer cell line; assay: SRB analysis 3; conditions: 48 hours
Protocol: as §1, §2

[16] = test system: SK-OV-3 ovarian cancer cell line; assay: SRB analysis 3; conditions: 48 hours
Protocol: as §1, §2

[17] = test system: A549 non-small cell lung cancer (NSCLC) cell line; assay: SRB analysis 3; conditions: 48 hours
Protocol: as §1, §2

[18] = test system: MDA-MB-231 breast cancer cell line; assay: SRB analysis 3; conditions: 48 hours
Protocol: as §1, §2

[19] = test system: ACHN renal cancer cell line; assay: SRB analysis 3; conditions: 48 hours
Protocol: as §1, §2

[20] = test system: H1975 non-small cell lung cancer (NSCLC) cell line; assay: SRB analysis 3; conditions: 48 hours
Protocol: as §1, §2

[21] = test system: cancer cells; assay: SRB analysis 3, triple combination, summary over cancer panels
Protocol: as §1, §2

[22] = test system: U87MG glioblastoma (GBM) cell line; assay: SRB analysis 3; conditions: 48 hours
Protocol: as §2, with “Through SRB analysis (n=3), the effect of triple combination treatment of a CAC inhibitor ([…] inhibitor (KN713: trimetazidine) and other anticancer drug on cell growth in the cancer cells was analyzed. (see Table 11). The” for “The”, “nm.” for “nm. The effect of the drug was expressed as GI50 (50% growth inhibition), TGI (total growth inhibition) or LC50 (lethal concentration). GI50 is the maximum concentration at the moment of 50% inhibition of cell proliferation and IC50 is the concentration of the drug that inhibits the enzyme activity in vitro by 50% in this study.”

[23] = test system: T87G glioblastoma (GBM) cell line; assay: SRB analysis 3; conditions: 48 hours
Protocol: as §2, with “Through SRB analysis (n=3), the effect of triple combination treatment of a CAC inhibitor ([…] inhibitor (KN713: trimetazidine) and other anticancer drug on cell growth in the cancer cells was analyzed. (see Table 11). The” for “The”, “nm.” for “nm. The effect of the drug was expressed as GI50 (50% growth inhibition), TGI (total growth inhibition) or LC50 (lethal concentration). GI50 is the maximum concentration at the moment of 50% inhibition of cell proliferation and IC50 is the concentration of the drug that inhibits the enzyme activity in vitro by 50% in this study.”

[24] = Breast Cancer, BT-549, MDA MB 231
[25] = Ovarian Cancer, SK-OV-3, OVCAR-3
[26] = Renal cell carcinoma, ACHN, CAKI-1

Structure (SMILES): Nc1ccn([C@@H]2O[C@H](CO)[C@@H](O)C2(F)F)c(=O)n1 [Gemcitabine]
- cell growth (Control = 100) ([1]; Gemcitabine 2.5 μM): 21.24
- cell growth (Control = 100) ([2]; Gemcitabine 2.5 μM): 6.029
- cell growth (Control = 100) ([3]; Gemcitabine 2.5 μM): 15.95
- cell growth (Control = 100) ([4]; Gemcitabine 2.5 μM): 3.788
- cell growth (Control = 100) ([5]; Gemcitabine 5 μM): 48.0
- cell growth (Control = 100) ([6]; Gemcitabine 2.5 μM): 33.13
- cell growth (Control = 100) ([7]; Gemcitabine 2.5 μM): 28.94
- cell growth (Control = 100) ([8]; Gemcitabine 5 μM): 31.60
- cell growth (Control = 100) ([9]; MKN-45, Gemcitabine 2.5 μM): 36.14
- cell growth (Control = 100) ([10]; Gemcitabine 5 μM): 25.12
- cell growth (Control = 100) ([11]; Gemcitabine 5 μM): 45.33
- cell growth (Control = 100) ([12]; Gemcitabine 2.5 μM): 22.18
- cell growth (Control = 100) ([13]; Gemcitabine 2.5 μM): 20.83
- cell growth (Control = 100) ([14]; Gemcitabine 2.5 μM): 25.9
- cell growth (Control = 100) ([15]; Gemcitabine 2.5 μM): 12.31
- cell growth (Control = 100) ([16]; Gemcitabine 2.5 μM): 24.21
- cell growth (Control = 100) ([17]; Gemcitabine 2.5 μM): 19.65
- cell growth (Control = 100) ([18]; Gemcitabine 2.5 μM): 65.05
- cell growth (Control = 100) ([19]; Gemcitabine 2.5 μM): −47.9775
- cell growth (Control = 100) ([20]; Gemcitabine 2.5 μM): 16.14
- Positive/Negative (triple combination of KN510, KN713 and the listed anticancer drug) [21, 24]: negative
- Positive/Negative (triple combination of KN510, KN713 and the listed anticancer drug) ([21]; Colon Cancer, HT-29, COLO-205): negative
- Positive/Negative (triple combination of KN510, KN713 and the listed anticancer drug) ([21]; GBM, U87MG, T87G): negative
- Positive/Negative (triple combination of KN510, KN713 and the listed anticancer drug) ([21]; Liver Cancer, SNU-449, Huh-7): negative
- Positive/Negative (triple combination of KN510, KN713 and the listed anticancer drug) ([21]; NSCLC, A549, H522): negative
- Positive/Negative (triple combination of KN510, KN713 and the listed anticancer drug) [21, 25]: negative
- Positive/Negative (triple combination of KN510, KN713 and the listed anticancer drug) ([21]; PDAC, MIA PaCa-2, PANC-1): Positive
- Positive/Negative (triple combination of KN510, KN713 and the listed anticancer drug) ([21]; Prostate Cancer, PC-3, DU-145): Positive
- Positive/Negative (triple combination of KN510, KN713 and the listed anticancer drug) [21, 26]: negative
- Positive/Negative (triple combination of KN510, KN713 and the listed anticancer drug) ([21]; Stomach Cancer, MKN-28, AGS): negative
- Positive/Negative (triple combination of KN510, KN713 and the listed anticancer drug) ([21]; melanoma, UACC62, A375): Positive
- cell growth (Control = 100) ([22]; Gemcitabine 5 μM): 3.67
- cell growth (Control = 100) ([23]; Gemcitabine 5 μM): 53.69

Structure (SMILES): CCc1c2c(nc3ccc(OC(=O)N4CCC(N5CCCCC5)CC4)cc13)-c1cc3c(c(=O)n1C2)COC(=O)[C@]3(O)CC [Irinotecan]
- cell growth (Control = 100) ([1]; Irinotecan 2.5 μM): 36.34
- cell growth (Control = 100) ([2]; Irinotecan 2.5 μM): 10.02
- cell growth (Control = 100) ([3]; Irinotecan 2.5 μM): 13.58
- cell growth (Control = 100) ([4]; Irinotecan 2.5 μM): −0.3443
- cell growth (Control = 100) ([5]; Irinotecan 5 μM): 37.7
- cell growth (Control = 100) ([6]; Irinotecan 2.5 μM): 15.47
- cell growth (Control = 100) ([7]; Irinotecan 2.5 μM): 22.65
- cell growth (Control = 100) ([8]; Irinotecan 2.5 μM): −13.35
- cell growth (Control = 100) ([9]; MKN45, Irinotecan 2.5 μM): 40.94
- cell growth (Control = 100) ([10]; Irinotecan 2.5 μM): −23.32
- cell growth (Control = 100) ([11]; Irinotecan 5 μM): 28.6
- cell growth (Control = 100) ([12]; Irinotecan 2.5 μM): −15.5188
- cell growth (Control = 100) ([13]; Irinotecan 2.5 μM): 45.75
- cell growth (Control = 100) ([14]; Irinotecan 2.5 μM): 2.59
- cell growth (Control = 100) ([15]; Irinotecan 2.5 μM): 7.427
- cell growth (Control = 100) ([16]; Irinotecan 2.5 μM): 13.57
- cell growth (Control = 100) ([17]; Irinotecan 2.5 μM): 17.6
- cell growth (Control = 100) ([18]; Irinotecan 2.5 μM): 78.25
- cell growth (Control = 100) ([19]; Irinotecan 2.5 μM): −43.8973
- cell growth (Control = 100) ([20]; Irinotecan 2.5 μM): 25.71
- Positive/Negative (triple combination of KN510, KN713 and the listed anticancer drug) [21, 24]: Positive
- Positive/Negative (triple combination of KN510, KN713 and the listed anticancer drug) ([21]; Colon Cancer, HT-29, COLO-205): negative
- Positive/Negative (triple combination of KN510, KN713 and the listed anticancer drug) ([21]; GBM, U87MG, T87G): Positive
- Positive/Negative (triple combination of KN510, KN713 and the listed anticancer drug) ([21]; Liver Cancer, SNU-449, Huh-7): negative
- Positive/Negative (triple combination of KN510, KN713 and the listed anticancer drug) ([21]; NSCLC, A549, H522): Positive
- Positive/Negative (triple combination of KN510, KN713 and the listed anticancer drug) [21, 25]: negative
- Positive/Negative (triple combination of KN510, KN713 and the listed anticancer drug) ([21]; PDAC, MIA PaCa-2, PANC-1): Positive
- Positive/Negative (triple combination of KN510, KN713 and the listed anticancer drug) ([21]; Prostate Cancer, PC-3, DU-145): Positive
- Positive/Negative (triple combination of KN510, KN713 and the listed anticancer drug) [21, 26]: negative
- Positive/Negative (triple combination of KN510, KN713 and the listed anticancer drug) ([21]; Stomach Cancer, MKN-28, AGS): Positive
- Positive/Negative (triple combination of KN510, KN713 and the listed anticancer drug) ([21]; melanoma, UACC62, A375): Positive
- cell growth (Control = 100) ([22]; Irinotecan 2.5 μM): 6.31
- cell growth (Control = 100) ([23]; Irinotecan 2.5 μM): 71.53
